Results published in patent US20140106387A1, “METHOD FOR CONTROLLING NAD(P)/NAD(P)H RATIO BY OXIDOREDUCTASE” (MD BIOALPHA CO., LTD., priority 2006, published 2014).

Tests used:
MN9D cells = experiment: intracellular ATP concentration in dopaminergic neuronal cells; format: cell-based; details: 5 μM
Procedure: Dopaminergic (MN9D) and non-dopaminergic (MN9X) neuronal cells were treated with 5 μM pyran-1,2-naphthoquinone and the ATP concentration was periodically measured.

HEK293 cells = experiment: mitochondrial membrane potential (TMRE fluorescence) in HEK293 cells; format: cell-based, human
Procedure: For determination of the inner mitochondrial membrane potential (ΔΨm), 20 nM of TMRE (tetramethylrhodamine ethyl ester) as a fluorescent indicator was continuously applied to be loaded on cells. In order to monitor mitochondrial Ca^2+, cells on glass coverslips were loaded with 10 μM Rhod-2 AM via cold loading/warm incubation. In order to monitor cytosolic Ca^2+, cells were co-loaded with 10 μM Fluo-4 AM at 37′C for 30 min. The cells were washed twice with a KB solution, and mounted in a perfusion chamber. Fluorescent imaging was taken using a confocal laser scanning microscope (LSM-510 META, Carl Zeiss) at a magnification of ×200 and ×400, in conjunction with appropriate laser lines and a filter set. Image analysis was carried out using LSM-510 META software (Zeiss). Images for TMRE (red fluorescence), Rhod-2 (red fluorescence) and Fluo-4 (green fluorescence) were obtained using an inverted Zeiss 510META laser-scanning confocal microscope equipped with ×63 numerical aperture, 1.4 oil-immersion planapochromat lens. Green fluorescence and red fluorescence were illuminated with light of 488 nm and 543 nm. Incident light was passed through a 545 nm dichroic mirror and observed via a 500 to 530 nm band-pass (green) filter and a 560 nm long-pass (red) barrier filter.
However, such effects were not observed in HEK293 cells. […]

[1] = system: mRNAs in liver, adipose and muscle tissues; experiment: real-time quantitative PCR / microarray of gene expression in tissues of DIO mice; format: in vivo, mouse
Procedure: Animals were continuously fed high-fat diet pellets for 3 to 4 weeks, thereby establishing DIO mice. Mice were raised in a breeding room with a 12 h/12 h light/dark D) cycle. Animals were divided into three groups, i.e., a group with administration of physiological saline (n=3), a group with administration of a vehicle (n=5) and a group with administration of 50 mg/kg of a candidate compound (n=7). Samples were orally administered to animals every day. On Days 7, 28 and 56, each tissue was removed, frozen in liquid nitrogen, and stored at […] for short and long periods of time.
On Days 7, 28 and 56, liver, adipose and muscle tissues were isolated from two groups of diet-induced DIO mice and total RNAs were extracted using Trizol. cDNAs were synthesized using 1 μg of total RNAs, and polymerase used for PCR was prepared using M-MLV polymerase according to a method instructed by the manufacturer. Real-time quantitative PCR was carried out using the prepared cDNAs.
A cDNA microarray analysis was carried out using an affymetrix mouse genome 430A 2.0 array chip. Using trizol, about 13 μg of total RNA was extracted in a concentration of more than 1 μg/1 μl from liver, adipose and muscle tissues of DIO mice on Days 7, 28 and 56, followed by a microarray analysis. Functional classification was made using NetAffx which is available from the Affymetrix website.
Adipose, liver or muscle tissues were pooled from male mice treated with a vehicle or a candidate compound for 4 weeks and the pooled tissues were subjected to microarray analysis. Total RNA was prepared from the tissues homogenized with a Trizol reagent (Invitrogen, Carlsbad, Calif.). Probes for the microarray analysis were prepared from 10 μg of the total RNA, and hybridized to Mouse 430A GeneChips (Affymetrix, Santa Clara, Calif.). The hybridized array was scanned, and raw data was extracted using Microarray Analysis Suite 5.0 (Affymetrix). For PCR quantitation, 1 μg of total RNA was reversely transcribed into cDNA using Superscript II and oligo(dT) primers. The constructed cDNA was amplified with the LightCycler FastStart DNA Master SYBR Green I kit and LightCycler, according to the manufacturer's instruction (Roche Diagnostics, Indianapolis, Ind.). Expression data were normalized to β-actin expression.
In order to investigate anti-obesity effects of an NQO1 activator, the NQO1 activator was administered daily to DIO mice at a dose of 50 mg/kg via an oral route, and an attempt was made to confirm levels of mRNAs of acetyl CoA carboxylase (ACC) 1, ACC2, fatty acid synthase (FAS), lipoprotein lipase (LPL), and stearoyl-CoA desaturase 1 (SCD1), which participate in lipid metabolism in the hepatic and gonadal adipose tissues, by real-time quantitative PCR. These enzymes are very important for lipid metabolism; it is known that ACC catalyzes formation of malonyl CoA from acetyl CoA, FAS catalyzes formation of palmitate from malonyl CoA, and SCD1 catalyzes formation of monounsaturated fat, thus playing a critical role in formation of triacylglycerol, a major energy store. Therefore, these enzymes are closely correlated with obesity, diabetes, and lipid metabolism-related diseases. […] Therefore, from the results of such increased or decreased expression of genes for the above-mentioned enzymes, it can be inferred that NQO1 will be feasible as a therapeutic target for the treatment of metabolic diseases.
In order to investigate effects of βL on the expression of genes involved in glucose and fat metabolism in liver, skeletal muscle and white adipose tissue (WAT), experiments were caned out using gene expression microarray analysis and mouse A42 Affymetrix GeneChip.

[2] = DIO mice, 50 mg/kg daily oral, liver and gonadal adipose tissues
[3] = gonadal adipose tissues, Days 7, 28 and 56, 50 mg/kg daily oral

CC1(C)CCC2=C(O1)c1ccccc1C(=O)C2=O [βL, 2,2-Dimethyl-3,4-dihydro-2H-benzo[h]chromene-5,6-dione]
intracellular ATP concentration (MN9D cells): decreased
effect on TMRE fluorescence / ΔΨm (HEK293 cells): not observed
LPL mRNA level increase compared to control ([1]; DIO mice, 50 mg/kg daily oral): approximately 2 fold
increase in mRNA levels of PPAR gamma ([1]; DIO mice, 50 mg/kg daily oral): two-fold
mRNA of PPAR alpha ([1]; DIO mice, 50 mg/kg daily oral): not changed
mRNAs of AOX, AMPK alpha 1, AMPK alpha 2 and carnitine palmitoyltransferase 1 ([1]; DIO mice, 50 mg/kg daily oral): increased levels
expression levels of mRNAs of ACC1 and ACC2, FAS, LPL, and SCD1 ([1]; DIO mice, 50 mg/kg daily oral, hepatic and gonadal adipose tissues): remarkably decreased
HK2 mRNA level [1, 2]: decreased
mRNA levels of UCP1 & 2 [1, 2]: significant increases
mRNAs of GLUT2 and GLUT4 [1, 2]: significant increases
mRNAs of PGC1α, NRF1, mtTFA, COX4 and COX7 [1, 2]: increased levels of mRNAs for all enzymes
expression of LPL, ATGL, PPARα, SIRT1, Glut2 and Glut4 ([1]; adipose tissues, vs vehicle-treated mice): higher
transcripts of SIRT1, SIRT3 and SIRT6 [1, 3]: significantly increased
transcripts of SIRT2, SIRT5 and SIRT7 [1, 3]: did not exhibit any noticeable difference
expression of PGC-1α and NRF-1 ([1]; liver and muscle, βL-treated vs vehicle-treated mice): significantly induced
expression of COX4, COX7, AOX, UCP2 and UCP3 ([1]; muscle): strongly upregulated
expression of GLUT 2 and GLUT 4 ([1]; muscle): induced
expression of Sirt1 and Sirt3 ([1]; muscle and WAT): induced
